Results reported in US20240270776A1, “PALLADIUM VINYL AND BUTADIENYL COMPOUNDS AS CHEMOTHERAPEUTIC AGENTS” (UNIVERSITÀ CA' FOSCARI VENEZIA, priority 2021, published 2024).

Columns and labels:
Format in all cases: cell-based
[1] = tested on: MDA-MB231 (triple-negative breast cancer); experiment: IC50 against tumor cell line MDA-MB231, CellTiter-Glo cell viability; conditions: MDA-MB231 cells, 96 hours, mean ± standard deviation of triplicate
Experimental: (§1) Example 11: evaluation of the therapeutic efficacy of the compounds of the invention.
(§2) Tests were carried out to determine the inhibitory concentration (IC50) of the compounds of the invention against tumor cell lines and on a control cell line; for comparison, the same tests were carried out with the cisplatin compound.
(§3) The cell lines tested were: A2780 and A2780cis, (ovarian cancer), MDA-MB231 (triple-negative breast cancer) and DLD1 (colon cancer) and MRC-5 (control; lung fibroblasts).
(§4) The stock solutions were obtained in dimethyl sulfoxide for compounds I-X and in H^20 for cisplatin.
(§5) The cells were kept, in accordance with the protocols indicated by the suppliers, at 37° C. in an atmosphere containing 5% carbon dioxide. About 500 cells were plated on 96 different wells and kept under such conditions for 96 hours.
(§6) Cell viability was determined, after treatment of the cells with a 1:1 solution of CellTiter-Glo® (registered trademark of Promega Corp., Madison, Wisconsin, USA) and DPBS, with the Tecan Infinite® M1000 instrument. IC50 values were calculated from dose response curves. The means and standard deviations were obtained from tripled measurements.

A2780 (ovarian cancer) = experiment: IC50 against tumor cell line A2780, CellTiter-Glo cell viability; conditions: A2780 cells, 96 hours, mean ± standard deviation of triplicate
Experimental: as §1, §2, §3, §4, §5, §6

DLD1 (colon cancer) = experiment: IC50 against tumor cell line DLD1, CellTiter-Glo cell viability; conditions: DLD1 cells, 96 hours, mean ± standard deviation of triplicate
Experimental: as §1, §2, §3, §4, §5, §6

[2] = tested on: A2780cis (ovarian cancer); experiment: IC50 against tumor cell line A2780cis, CellTiter-Glo cell viability
Experimental: as §1, §2, §3, §4, §5, §6

[3] = tested on: MRC-5 (control; lung fibroblasts); experiment: IC50 on control cell line MRC-5, CellTiter-Glo cell viability; conditions: MRC-5 normal cells
Experimental: as §1, §2, §3, §4, §5, §6

Row | SMILES | IC50 [1] [µM] | IC50 (A2780 (ovarian cancer)) [µM] | IC50 (DLD1 (colon cancer)) [µM] | IC50 ([2]; A2780cis cells, 96 hours, mean ± standard deviation of triplicate, read-out: IC50 (μM) A2780 cis) [µM] | IC50 ([3]; 96 hours, mean ± standard deviation of triplicate) [µM] | loss of activity between the two lines (A2780 to A2780cis) ([2]; A2780 vs A2780cis) | activity against normal cells (MRC-5), in words [3]
1 | N.N.[Cl][Pt][Cl] [CISPLATIN, cis-diaminodichloroplatin (II)] | 37 ± 9 | 0.4 ± 0.1 | 0.63 ± 0.08 | 27 ± 5 | 8 ± 1 |  | 
2 | COC(=O)/C(C)=C(C(=O)OC)/C(C(=O)OC)=[C](/C(=O)OC)[Pd]1([Cl])[CH]2N(Cc3ccccc3)C=CN2CN2C=CN(Cc3ccccc3)[CH]21 (stereo not shown) [Compound VII] |  |  |  |  |  | ca. one order of magnitude | substantially inactive
